Test results: patent US20260055089A1, “NOVEL SUBSTITUTED BENZOTHIOPHENE-6-CARBOXYLIC ACID DERIVATIVES, PROCESSES FOR THEIR PREPARATION AND THERAPEUTIC USES THEREOF” (SANOFI, priority 2022, published 2026)

Target: T1, ERα (Homo sapiens, UniProt P03372)
T1 construct: host or cells: MCF7
T1 sequence (P03372 1-595): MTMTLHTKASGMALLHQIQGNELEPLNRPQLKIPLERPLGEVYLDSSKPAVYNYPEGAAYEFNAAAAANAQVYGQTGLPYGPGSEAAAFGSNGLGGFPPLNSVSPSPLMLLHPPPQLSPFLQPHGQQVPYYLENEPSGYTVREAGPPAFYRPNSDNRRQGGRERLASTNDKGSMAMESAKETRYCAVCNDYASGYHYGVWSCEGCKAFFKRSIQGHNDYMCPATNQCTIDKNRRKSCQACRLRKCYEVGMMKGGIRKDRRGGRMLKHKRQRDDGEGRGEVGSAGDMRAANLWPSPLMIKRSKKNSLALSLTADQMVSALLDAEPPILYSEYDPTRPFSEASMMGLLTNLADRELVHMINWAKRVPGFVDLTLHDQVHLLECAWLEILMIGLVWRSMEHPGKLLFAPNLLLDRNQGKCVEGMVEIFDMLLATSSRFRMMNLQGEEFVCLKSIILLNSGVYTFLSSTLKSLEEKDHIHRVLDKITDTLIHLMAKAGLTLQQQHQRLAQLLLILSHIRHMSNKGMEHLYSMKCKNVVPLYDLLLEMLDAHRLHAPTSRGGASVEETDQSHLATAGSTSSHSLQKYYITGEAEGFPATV
Test: Estrogen receptor degradation activity: breast cancer cell ERα in cell western assay
Assay type: cell-based
Details: MCF7 cells; for % Degradation At 0.3 μM: 4 hours, relative to fulvestrant 0.1 μM positive control; for DC50: 4 hours post compound addition, concentration which degrades 50% of the estrogen receptor, read-out: Degradation IC50
Method: Test: Estrogen Receptor Degradation Activity
Said test involves measuring the in vitro degradation activity of the compounds of the table 1.
The measurements of the degradation activities were made using a breast cancer cell ERα in cell western assay as described hereunder.
MCF7 cells (ATCC) were seeded in 384 wells microplate (collagen coated) at a concentration of 10000 cells/30 μL per well in red phenol free MEM alpha medium (invitrogen) containing 5% charcoal dextran striped FBS. The following day, 9 points serial 1:5 dilution of each compound was added to the cells in 2.5 μL at final concentrations ranging from 0.3-0.0000018 μM (in table 2), or 0.1 μM for fulvestrant (using as positive control). At 4 hours post compound addition the cells were fixed by adding 25 μL of formalin (final concentration 5% formalin containing 0.1% triton) for 10 minutes at RT and then washed twice with PBS. Then, 50 μL of LI-COR blocking buffer containing 0.1% Triton was added to plate for 30 minutes at RT. LI-COR blocking buffer was removed and cells were incubated overnight at cold room with 50 μL anti-ER rabbit monoclonal antibody (Thermo scientific MA1-39540) diluted at 1:1000 in LI-COR blocking buffer containing 0.1% tween-20. Wells which were treated with blocking buffer but no antibody were used as background control. Wells were washed twice with PBS (0.1% tween-20) and incubated at 37° C. for 60 minutes in LI-COR (0.1% tween-20) containing goat anti-rabbit antibody Alexa 488 (1:1000) and Syto-64 a DNA dye (2 μM final concentration). Cells were then washed 3 times in PBS and scanned in ACUMEN explorer (TTP-Labtech). Integrated intensities in the green fluorescence and red fluorescence were measured to determine the levels of ERα and DNA respectively.
The degradation activity with respect to estrogen receptors in this test is given by the concentration which degrades 50% of the estrogen receptor (or ICso) in nM.
The % of ERα levels decrease were determined as follows: % inhibition=100*(1−(sample−fulvestrant:DMSO−fulvestrant)).

% Degradation At 0.3 μM | DC50 | SMILES
85% | 5 nM | CC(F)(F)c1cc(F)ccc1-c1sc2cc(C(=O)O)ccc2c1Oc1ccc(O[C@H]2CCN(CCCF)C2)cc1 [Compound 3, (S)-2-(2-(1,1-difluoroethyl)-4-fluorophenyl)-3-(4-((1-(3-fluoropropyl)pyrrolidin-3-yl)oxy)phenoxy)benzo[b]thiophene-6-carboxylic acid]
93% | 0.9 nM | CC(F)(F)c1cc(F)ccc1-c1sc2cc(C(=O)O)ccc2c1Oc1ccc(OC2CN(CCCF)C2)cc1 [Compound 2, 2-(2-(1,1-difluoroethyl)-4-fluorophenyl)-3-(4-((1-(3-fluoropropyl)azetidin-3-yl)oxy)phenoxy)benzo[b]thiophene-6-carboxylic acid]
92% | 2 nM | CC(F)(F)c1cc(F)ccc1-c1sc2cc(C(=O)O)ccc2c1Oc1ccc(NC2CN(CCCF)C2)cc1.Cl [Compound 1, 2-(2-(1,1-difluoroethyl)-4-fluorophenyl)-3-(4-((1-(3-fluoropropyl)azetidin-3-yl)amino)phenoxy)benzo[b]thiophene-6-carboxylic acid, hydrochloride]
